Tested on: 628569-122-R-J1-PDC complex spheroid viability
Assay: Anticancer human tumor 628569-122-R-J1-PDC patient-derived head and neck squamous carcinoma cell line growth inhibition [CLK]
Details: for IC50: curve of first compound; for viability, T/C: stronger effect = lower value
Method in brief: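 Multi-cell-type spheroids combined patient-derived tumor cells with HUVEC endothelial cells and human mesenchymal stem cells. Paired agents were dosed in half-log steps down from about clinical Cmax, or from 10 microM where Cmax was unknown.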

[1] = second compound 0.0316 µM, first compound 0.0316 µM
[2] = second compound 0.0316 µM, first compound 0.1 µM
[3] = second compound 0.0316 µM, first compound 0.316 µM
[4] = second compound 0.0316 µM, first compound 1 µM
[5] = second compound 0.1 µM, first compound 0.0316 µM
[6] = second compound 0.1 µM, first compound 0.1 µM
[7] = second compound 0.1 µM, first compound 0.316 µM
[8] = second compound 0.1 µM, first compound 1 µM
[9] = second compound 0.316 µM, first compound 0.0316 µM
[10] = second compound 0.316 µM, first compound 0.1 µM
[11] = second compound 0.316 µM, first compound 0.316 µM
[12] = second compound 0.316 µM, first compound 1 µM
[13] = second compound 1 µM, first compound 0.0316 µM
[14] = second compound 1 µM, first compound 0.1 µM
[15] = second compound 1 µM, first compound 0.316 µM
[16] = second compound 1 µM, first compound 1 µM
[17] = second compound 3.16 µM, first compound 0.0316 µM
[18] = second compound 3.16 µM, first compound 0.1 µM
[19] = second compound 3.16 µM, first compound 0.316 µM
[20] = second compound 3.16 µM, first compound 1 µM
[21] = second compound 10 µM, first compound 0.0316 µM
[22] = second compound 10 µM, first compound 0.1 µM
[23] = second compound 10 µM, first compound 0.316 µM
[24] = second compound 10 µM, first compound 1 µM
[25] = second compound 0.0316 µM, first compound 0.00316 µM
[26] = second compound 0.0316 µM, first compound 0.01 µM
[27] = second compound 0.1 µM, first compound 0.00316 µM
[28] = second compound 0.1 µM, first compound 0.01 µM
[29] = second compound 0.316 µM, first compound 0.00316 µM
[30] = second compound 0.316 µM, first compound 0.01 µM
[31] = second compound 1 µM, first compound 0.00316 µM
[32] = second compound 1 µM, first compound 0.01 µM
[33] = second compound 3.16 µM, first compound 0.00316 µM
[34] = second compound 3.16 µM, first compound 0.01 µM
[35] = second compound 10 µM, first compound 0.00316 µM
[36] = second compound 10 µM, first compound 0.01 µM
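Note: spheroids exposed to agents for seven days before readout.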
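Throughout, for viability, T/C: 100% = DMSO vehicle control viability.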

CC(Nc1ccc2c(c1)OCCn1cc(N3C(=O)OCC3C(F)F)nc1-2)C(N)=O (stereo unspecified) + CN1CCN(c2cc(C(=O)Nc3cc4cc(-c5cnn(C)c5)ccc4cn3)ccn2)CC1
IC50 (second compound 0.0316 µM): 432 nM
IC50 (second compound 0.1 µM): 32 nM
IC50 (second compound 0.316 µM): < 31.6 nM
IC50 (second compound 1 µM): < 31.6 nM
IC50 (second compound 3.16 µM): < 31.6 nM
IC50 (second compound 10 µM): < 31.6 nM
viability, T/C [1]: 76.2%
viability, T/C [2]: 71.2%
viability, T/C [3]: 50.8%
viability, T/C [4]: 41%
viability, T/C (second compound 0.0316 µM, first compound 3.16 µM): 28.9%
viability, T/C (second compound 0.0316 µM, first compound 10 µM): 23.2%
viability, T/C [5]: 51.8%
viability, T/C [6]: 44%
viability, T/C [7]: 36.4%
viability, T/C [8]: 41.6%
viability, T/C (second compound 0.1 µM, first compound 3.16 µM): 23.2%
viability, T/C (second compound 0.1 µM, first compound 10 µM): 17.8%
viability, T/C [9]: 26.9%
viability, T/C [10]: 20.5%
viability, T/C [11]: 13.6%
viability, T/C [12]: 13.5%
viability, T/C (second compound 0.316 µM, first compound 3.16 µM): 8.04%
viability, T/C (second compound 0.316 µM, first compound 10 µM): 5.9%
viability, T/C [13]: 7.59%
viability, T/C [14]: 8.7%
viability, T/C [15]: 6.98%
viability, T/C [16]: 8.35%
viability, T/C (second compound 1 µM, first compound 3.16 µM): 6.35%
viability, T/C (second compound 1 µM, first compound 10 µM): 5.58%
viability, T/C [17]: 7.77%
viability, T/C [18]: 7.38%
viability, T/C [19]: 6.16%
viability, T/C [20]: 6.78%
viability, T/C (second compound 3.16 µM, first compound 3.16 µM): 7.18%
viability, T/C (second compound 3.16 µM, first compound 10 µM): 6.1%
viability, T/C [21]: 6.06%
viability, T/C [22]: 4.09%
viability, T/C [23]: 2.84%
viability, T/C [24]: 6.87%
viability, T/C (second compound 10 µM, first compound 3.16 µM): 3.27%
viability, T/C (second compound 10 µM, first compound 10 µM): 2.51%

CCN1CCN(Cc2ccc(Nc3ncc(F)c(-c4cc(F)c5nc(C)n(C(C)C)c5c4)n3)nc2)CC1 + CN1CCN(c2cc(C(=O)Nc3cc4cc(-c5cnn(C)c5)ccc4cn3)ccn2)CC1
IC50 (second compound 0.0316 µM): > 1000 nM
IC50 (second compound 0.1 µM): > 1000 nM
IC50 (second compound 0.316 µM): < 3.16 nM
IC50 (second compound 1 µM): < 3.16 nM
IC50 (second compound 3.16 µM): < 3.16 nM
IC50 (second compound 10 µM): < 3.16 nM
viability, T/C [25]: 91.4%
viability, T/C [26]: 85.2%
viability, T/C [1]: 73.7%
viability, T/C [2]: 79.6%
viability, T/C [3]: 132%
viability, T/C [4]: 181%
viability, T/C [27]: 72.8%
viability, T/C [28]: 55.6%
viability, T/C [5]: 64.6%
viability, T/C [6]: 75.3%
viability, T/C [7]: 96.8%
viability, T/C [8]: 157%
viability, T/C [29]: 42.6%
viability, T/C [30]: 43.2%
viability, T/C [9]: 48.1%
viability, T/C [10]: 53.1%
viability, T/C [11]: 81.8%
viability, T/C [12]: 88.4%
viability, T/C [31]: 10.7%
viability, T/C [32]: 5.74%
viability, T/C [13]: 6.1%
viability, T/C [14]: 7.58%
viability, T/C [15]: 12%
viability, T/C [16]: 12.2%
viability, T/C [33]: 9.03%
viability, T/C [34]: 6.91%
viability, T/C [17]: 7.06%
viability, T/C [18]: 8.11%
viability, T/C [19]: 10.9%
viability, T/C [20]: 11.1%
viability, T/C [35]: 9.28%
viability, T/C [36]: 1.85%
viability, T/C [21]: 3.61%
viability, T/C [22]: 4.38%
viability, T/C [23]: 8.89%
viability, T/C [24]: 4.27%

COc1c(OCCCN2CCOCC2)ccc2c3n(c(=NC(=O)c4cnc(N)nc4)nc12)CCN3 + CN1CCN(c2cc(C(=O)Nc3cc4cc(-c5cnn(C)c5)ccc4cn3)ccn2)CC1
IC50 (second compound 0.0316 µM): 21.1 nM
IC50 (second compound 0.1 µM): 9 nM
IC50 (second compound 0.316 µM): < 3.16 nM
IC50 (second compound 1 µM): < 3.16 nM
IC50 (second compound 3.16 µM): < 3.16 nM
IC50 (second compound 10 µM): < 3.16 nM
viability, T/C [25]: 77%
viability, T/C [26]: 67.5%
viability, T/C [1]: 34.4%
viability, T/C [2]: 34.8%
viability, T/C [3]: 18.3%
viability, T/C [4]: 7.77%
viability, T/C [27]: 54.5%
viability, T/C [28]: 51.3%
viability, T/C [5]: 34.6%
viability, T/C [6]: 16.8%
viability, T/C [7]: 13.2%
viability, T/C [8]: 2.93%
viability, T/C [29]: 35.2%
viability, T/C [30]: 21.1%
viability, T/C [9]: 11.8%
viability, T/C [10]: 9.4%
viability, T/C [11]: 5.28%
viability, T/C [12]: 1.37%
viability, T/C [31]: 9.4%
viability, T/C [32]: 8.16%
viability, T/C [13]: 8.92%
viability, T/C [14]: 6.58%
viability, T/C [15]: 5.37%
viability, T/C [16]: 4.98%
viability, T/C [33]: 5.32%
viability, T/C [34]: 5.77%
viability, T/C [17]: 8.53%
viability, T/C [18]: 6.16%
viability, T/C [19]: 7.48%
viability, T/C [20]: 4.29%
viability, T/C [35]: 7.43%
viability, T/C [36]: 2.01%
viability, T/C [21]: 3.89%
viability, T/C [22]: 2.57%
viability, T/C [23]: 3.58%
viability, T/C [24]: 2.62%

Reference: PubChem BioAssay AID2060611 (Molecular Pharmacology Branch, DTP, NCI, 2025)
